The results in this text go back to US20240279217A1, “Heterocyclic compounds for the treatment of tuberculosis” (TECNIMEDE - SOCIEDADE TÉCNICO-MEDICINAL, SA, priority 2021, published 2024).

Molecules are shown by their SMILES. In brackets after ≈: the same amount, converted by molar mass. Counter-ions that a name gives are not always drawn. Like-named read-outs stand apart in the source and are kept apart here. A value given as a limit tells only on which side of the number the result lay.

Test [1] concerns H37Rv M. tuberculosis (strain ATCC 25618). As to the kind of experiment: Mycobacterium tuberculosis susceptibility assay REMA (resazurin microtiter assay). In kind it is cell-based. As to conditions: for MIC: Mycobacterium tuberculosis, 144 h, read-out: REMA MIC; for REMA MIC: Table 2. For orientation: Alamar Blue is a resazurin reagent that responds to reducing activity.
Test [2] deals with HepG2 cell line. As to the kind of experiment: In vitro cytotoxicity assay (MTS tetrazolium reduction). The settings on record: HepG2, 48 h. In kind it is cell-based. How it is done:
In an embodiment, in vitro cytotoxicity assay was carried out. In vitro cytotoxicity assay was performed in HepG2 cell line using a tetrazolium reduction assay for cell viability evaluation (MTS reduction as described by Cory A. et al (Cancer Commun. 1991, 3 (7), 207-212)). The assay was performed in 96-well plates for 48 h at 37° C. and 5% CO2 in incubation medium (low glucose DMEM with Glutamax, 10% FBS, 1% Pen/Strep and DMSO). Cells were exposed to 8 different compound concentrations in successive dilutions (usually, base 2), plus a positive control (a compound in a concentration known to decrease cell viability above 50%) and a negative control (incubation medium). Six replicate wells were assayed for each condition. Compound stock solutions were prepared in DMSO at 20 mM, whenever possible, filter sterilized, aliquoted and stored at −20° C. The maximum compound concentrations tested depend on its solubility in incubation medium, and on the maximum DMSO percentage allowable without loss of cell viability. At the end of the incubation period, tetrazolium reagent was added (CellTiter 96′ AQueous Solution from Promega); cells were incubated for another 3 hours in order to promote tetrazolium reduction to formazan by viable cells. The amount of soluble formazan produced was evaluated by 490 nm absorbance reading in a spectrophotometer plate reader. […] Whenever possible, IC50 was calculated as the concentration of compound that reduces cell viability by 50%.

Setting [3] is: MTB growth REMA, H37Rv, Middlebrook 7H9, 6 days at 37° C.
[4] abbreviates: Table 1, MTB growth REMA, H37Rv, Middlebrook 7H9, 6 days at 37° C.
The mark [5] stands for this setting: Homo sapiens, Table 1, cytotoxicity, MTS, read-out: IC50.
Where [6] appears, read: Table 2, cytotoxicity, MTS, read-out: IC50.

For orientation: MIC means the smallest concentration in the dilution series that meets the test's criterion for growth inhibition. What is called IC50 is the concentration that inhibits the measured activity by half. With `COc1cccc2ccc(N3CCC(c4nc(-c5ccc(C(F)(F)F)cc5)no4)CC3)nc12` [Compound 5, 5-(1-(8-methoxyquinolin-2-yl)piperidin-4-yl)-3-(4-(trifluoromethyl)phenyl)-1,2,4-oxadiazole hydrochloride], the MIC in test [1] was 7.8 to 15.6 µM. In addition, the IC50 in test [2] (Homo sapiens) lay within 50 to 100 µM.

As for `COc1cc(OC)cc(-c2noc(C3CCN(c4ccc5cccc(OC)c5n4)CC3)n2)c1` [Compound 6, 3-(3,5-dimethoxyphenyl)-5-(1-(8-methoxyquinolin-2-yl)piperidin-4-yl)-1,2,4-oxadiazole], the MIC in test [1] lay within 7.8 to 15.6 µM (≈ 3.48 to 6.97 µg/mL). Also, the “REMA MIC” value in test [1] (setting [3]) is “+++ (7.8-15.6)”. Also, the IC50 was over 100 µM in test [2] (Homo sapiens) and over 100 µM in test [2] (Table 2, cytotoxicity, MTS).

Consider `COc1cccc2ccc(N3CCC(c4nc(-c5cccc(C(F)(F)F)c5)no4)CC3)nc12` [Compound 7, 5-(1-(8-methoxyquinolin-2-yl)piperidin-4-yl)-3-(3-(trifluoromethyl)phenyl)-1,2,4-oxadiazole], for which the MIC in test [1] fell in the range of 15.6 to 31.5 µM (≈ 7.09 to 14.3 µg/mL). This molecule also gave an IC50 in test [2] (Homo sapiens) of over 100 µM.

Take `COc1cccc2ccc(N3CCC(c4nc(-c5cccnc5)no4)CC3)nc12` [Compound 10, 5-(1-(8-methoxyquinolin-2-yl)piperidin-4-yl)-3-(pyridin-3-yl)-1,2,4-oxadiazole hydrochloride]: the MIC in test [1] fell in the range of 15.6 to 31.5 µM. In test [2] (Homo sapiens), the IC50 fell in the range of 50 to 100 µM.

Turning to `COc1cccc2ccc(N3CCC(c4nc(-c5ccc(C(F)(F)F)nc5)no4)CC3)nc12` [Compound 11, 5-(1-(8-methoxyquinolin-2-yl)piperidin-4-yl)-3-(6-(trifluoromethyl)pyridin-3-yl)-1,2,4-oxadiazole], the MIC in test [1] is under 7.8 µM. This molecule also gave an IC50 in test [2] (Homo sapiens) of 20 to 50 µM.

Take `Clc1cccc2ccc(N3CCC(c4nc(-c5cccnc5)no4)CC3)nc12` [Compound 18, 5-(1-(8-chloroquinolin-2-yl)piperidin-4-yl)-3-(pyridin-3-yl)-1,2,4-oxadiazole hydrochloride]: the MIC in test [1] was 15.6 to 31.5 µM. Also, in test [2] (Homo sapiens), the IC50 lay within 50 to 100 µM.

Turning to `COc1ccc2nc(N3CCC(c4nc(-c5cccnc5)no4)CC3)ccc2c1` [Compound 21, 5-(1-(6-methoxyquinolin-2-yl)piperidin-4-yl)-3-(pyridin-3-yl)-1,2,4-oxadiazole], in test [1] (setting [4]), the MIC was under 7.8 µM. In addition, the “REMA MIC” value in test [1] (setting [3]) is on record as “++++ (<7.8)”. In addition, the IC50 in test [2] (setting [5]) and in test [2] (setting [6]) was over 100 µM each time.

As to `COc1cccc2ccc(N3CCC(c4nc(-c5ccc(O)cc5)no4)CC3)nc12` [Compound 24, 4-(5-(1-(8-methoxyquinolin-2-yl)piperidin-4-yl)-1,2,4-oxadiazol-3-yl)phenol], the MIC in test [1] (setting [4]) lay within 7.8 to 15.6 µM (≈ 3.14 to 6.28 µg/mL). Moreover, the “REMA MIC” value in test [1] (setting [3]) was “+++ (7.8-15.6)”. The IC50 in test [2] (setting [5]) and in test [2] (setting [6]) was over 100 µM in each case.

In the case of `c1cncc(-c2noc(C3CCN(c4ccc5cc(-c6ccncc6)ccc5n4)CC3)n2)c1` [Compound 27, 3-(pyridin-3-yl)-5-(1-(6-(pyridin-4-yl)quinolin-2-yl)piperidin-4-yl)-1,2,4-oxadiazole], the MIC in test [1] (setting [4]) was under 7.8 µM. In test [1] (setting [3]), the “REMA MIC” value was “++++ (<7.8)”. Moreover, the IC50 in test [2] (setting [5]) and in test [2] (setting [6]) was over 100 µM each time.

In the case of `COc1cccc2ccc(N3CCC(c4nc(-c5ccc(Cl)nc5)no4)CC3)nc12` [Compound 31, 3-(6-chloropyridin-3-yl)-5-(1-(8-methoxyquinolin-2-yl)piperidin-4-yl)-1,2,4-oxadiazole hydrochloride], the MIC in test [1] was 15.6 to 31.5 µM. In test [2] (Homo sapiens), the concentration for half-maximal inhibition (IC50) fell in the range of 20 to 50 µM.

With `COc1cccc2ccc(N3CCC(c4nc(-c5ccc(N6CCCCC6)nc5)no4)CC3)nc12` [Compound 33, 5-(1-(8-methoxyquinolin-2-yl)piperidin-4-yl)-3-(6-(piperidin-1-yl)pyridin-3-yl)-1,2,4-oxadiazole], in test [1], the MIC is under 7.8 µM. The “REMA MIC” value in test [1] (setting [3]) was “++++ (<7.8)”. For the same molecule, the IC50 in test [2] (Homo sapiens) was over 100 µM; in test [2] (Table 2, cytotoxicity, MTS), over 100 µM.

As to `COc1cccc2ccc(N3CCC(c4nc(-c5ccc(N6CCNCC6)nc5)no4)CC3)nc12` [Compound 34, 5-(1-(8-methoxyquinolin-2-yl)piperidin-4-yl)-3-(6-(piperazin-1-yl)pyridin-3-yl)-1,2,4-oxadiazole], the MIC in test [1] (setting [4]) was 15.6 to 31.5 µM (≈ 7.36 to 14.9 µg/mL). Also, the IC50 in test [2] (setting [5]) was under 20 µM.

Consider `COc1cccc2ccc(N3CCC(c4nc(-c5ccc(NCCO)nc5)no4)CC3)nc12` [Compound 35, 2-((5-(5-(1-(8-methoxyquinolin-2-yl)piperidin-4-yl)-1,2,4-oxadiazol-3-yl)pyridin-2-yl)amino)ethan-1-ol hydrochloride], for which the MIC in test [1] lay within 15.6 to 31.5 µM. The molecule further had an IC50 in test [2] (Homo sapiens) of over 100 µM.

For the molecule `COc1cccc2ccc(N3CCC(c4nc(-c5ccc(N6CCCC6)nc5)no4)CC3)nc12` [Compound 50, 5-(1-(8-methoxyquinolin-2-yl)piperidin-4-yl)-3-(6-(pyrrolidin-1-yl)pyridin-3-yl)-1,2,4-oxadiazole hydrochloride], the MIC in test [1] fell in the range of 7.8 to 15.6 µM. Also, the “REMA MIC” value in test [1] (setting [3]) is on record as “+++ (7.8-15.6)”. Further, the IC50 was over 100 µM in test [2] (Homo sapiens) and over 100 µM in test [2] (Table 2, cytotoxicity, MTS).
